Assay results: patent US8609836B2, “4-aryl-2-anilino-pyrimidines” (Janssen Pharmaceutica NV, priority 2008, dated 2013)

Tests used:
HCT-116 = test: Cellular proliferation assay (Alamar blue), HCT-116; assay type: cell-based; conditions: Homo sapiens, 10% FCS, 72 hours with compound, Alamar blue 4 h
Procedure, shortened: (§1)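 Alamar blue fluorescence (544/590 nm) measured viable cells after 72 h compound exposure; dye incubation 4 h (HCT-116), 6 h (U87-MG) or 24 h (A2780, MDA-MB-231). Cells pre-seeded 24 h, grown in 10% FCS, 37° C, 5% CO2; effect expressed relative to control cells.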

U87-MG = test: Cellular proliferation assay (Alamar blue), U87-MG; assay type: cell-based; conditions: Homo sapiens, U-87 MG; 10% FCS; 72 hours with compound; Alamar blue 6 h; read-out: U87-MG (cellular proliferation assay, Table 4) (converted)
Procedure, shortened: as §1

H1299 = test: Cellular proliferation assay (Alamar blue), H1299; assay type: cell-based; conditions: Homo sapiens, NCI-H1299; 10% FCS; 72 hours with compound; Alamar blue 4 h
Procedure, shortened: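 This proliferation assay on NCI-H1299 cells used an initial 24-hour compound-free incubation after seeding, followed by 72 hours of compound treatment with 10% FCS serum at 37° C. and 5% (v/v) CO2. Viable cells were quantified by a 4 h Alamar blue incubation and fluorescent plate reading at 544 nm/590 nm, and effects were expressed relative to control cells.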

CDK1/CyclinB (h) = CDK1/CyclinB (h) (Homo sapiens, UniProt P06493); test: CDK1/CyclinB human kinase inhibition, Invitrogen's FRET assay (Z'lyte); assay type: biochemical; conditions: read-out: CDK1 pIC50 (converted)
Sequence of CDK1/CyclinB (h) (P06493 whole entry): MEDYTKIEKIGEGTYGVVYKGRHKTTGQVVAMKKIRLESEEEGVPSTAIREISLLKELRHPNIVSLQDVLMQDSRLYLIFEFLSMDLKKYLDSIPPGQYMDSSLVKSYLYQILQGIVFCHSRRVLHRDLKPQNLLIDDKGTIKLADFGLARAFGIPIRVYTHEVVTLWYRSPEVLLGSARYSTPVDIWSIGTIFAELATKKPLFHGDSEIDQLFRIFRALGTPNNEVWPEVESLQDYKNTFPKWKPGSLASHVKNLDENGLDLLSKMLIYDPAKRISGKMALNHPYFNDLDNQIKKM
Sequence of CDK1/CyclinB (h) (P14635 whole entry partner): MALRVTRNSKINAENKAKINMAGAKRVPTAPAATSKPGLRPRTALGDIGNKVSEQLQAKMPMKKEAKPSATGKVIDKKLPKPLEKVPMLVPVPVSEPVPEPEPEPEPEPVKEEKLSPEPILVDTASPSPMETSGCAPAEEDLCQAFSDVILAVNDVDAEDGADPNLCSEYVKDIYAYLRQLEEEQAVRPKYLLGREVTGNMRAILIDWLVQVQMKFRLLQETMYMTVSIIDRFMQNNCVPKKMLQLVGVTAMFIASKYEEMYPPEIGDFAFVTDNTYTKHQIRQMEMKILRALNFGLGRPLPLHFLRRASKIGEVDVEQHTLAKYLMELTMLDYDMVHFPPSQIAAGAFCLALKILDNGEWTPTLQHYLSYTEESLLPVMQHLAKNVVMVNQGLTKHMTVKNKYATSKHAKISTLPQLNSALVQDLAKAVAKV
Procedure, shortened: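 Read-out is the 460 nm/538 nm emission ratio (390 nm excitation) after a 60 min protease development step. Before that, 10 μM ATP and 2 μM Z'lyte Ser/Thr peptide 12 react 60 min at room temperature with 0.2 μg/ml human CDK1/CyclinB in Hepes pH 7.5 containing MgCl2, EGTA and Brij-35.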

A2780 = test: Cellular proliferation assay (Alamar blue), A2780; assay type: cell-based; conditions: Homo sapiens, 10% FCS, 72 hours with compound, Alamar blue 24 h, read-out: A2780 (cellular proliferation assay, Table 4) (converted)
Procedure, shortened: as §1

AuroraB (h) = AuroraB (h) (Homo sapiens, UniProt Q96GD4); test: Aurora-B human kinase inhibition, SPA; assay type: biochemical; conditions: read-out: AuroraB pIC50 (converted)
Sequence of AuroraB (h) (Q96GD4 whole entry): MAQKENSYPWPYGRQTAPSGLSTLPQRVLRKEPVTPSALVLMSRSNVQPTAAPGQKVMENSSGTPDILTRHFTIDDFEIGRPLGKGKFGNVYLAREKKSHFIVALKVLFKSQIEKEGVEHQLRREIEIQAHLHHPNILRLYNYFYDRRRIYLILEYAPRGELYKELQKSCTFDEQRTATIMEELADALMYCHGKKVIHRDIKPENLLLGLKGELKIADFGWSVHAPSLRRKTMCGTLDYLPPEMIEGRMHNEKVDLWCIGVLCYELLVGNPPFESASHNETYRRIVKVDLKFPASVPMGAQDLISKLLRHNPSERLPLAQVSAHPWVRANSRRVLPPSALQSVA
Procedure, shortened: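 AuroraB (0.5 μg/ml) phosphorylates 3 μM biotin-peptide using 0.5 μM ATP spiked with 33P-ATP in Hepes pH 7.5 with 3 mM MgCl2 and MnCl2, for 60 min at room temperature. EDTA stop solution carries streptavidin scintillant beads, and the captured radiolabel is imaged.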

PLK3 (h) = PLK3 (h) (Homo sapiens, UniProt Q9H4B4); test: PLK3 human kinase inhibition, SPA; assay type: biochemical; conditions: read-out: PLK3 pIC50 (converted)
Sequence of PLK3 (h) (Q9H4B4 whole entry): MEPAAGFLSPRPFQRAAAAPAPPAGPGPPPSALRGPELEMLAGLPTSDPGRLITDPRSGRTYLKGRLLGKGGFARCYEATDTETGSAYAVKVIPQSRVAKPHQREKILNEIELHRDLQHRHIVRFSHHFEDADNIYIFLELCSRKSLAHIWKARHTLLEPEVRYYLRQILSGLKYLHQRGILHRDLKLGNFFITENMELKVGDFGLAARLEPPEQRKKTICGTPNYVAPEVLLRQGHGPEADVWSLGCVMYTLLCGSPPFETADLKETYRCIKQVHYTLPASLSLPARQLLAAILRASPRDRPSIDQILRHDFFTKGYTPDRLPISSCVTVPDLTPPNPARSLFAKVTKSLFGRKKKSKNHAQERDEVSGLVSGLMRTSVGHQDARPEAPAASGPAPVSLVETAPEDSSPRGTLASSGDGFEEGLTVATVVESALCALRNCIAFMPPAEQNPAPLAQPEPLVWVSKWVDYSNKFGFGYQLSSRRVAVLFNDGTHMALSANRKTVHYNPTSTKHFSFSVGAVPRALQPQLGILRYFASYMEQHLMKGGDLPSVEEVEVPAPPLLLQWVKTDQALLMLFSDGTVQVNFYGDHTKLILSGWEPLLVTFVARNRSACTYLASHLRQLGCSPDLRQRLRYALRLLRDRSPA
Procedure, shortened: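 Radiometric scintillation proximity format at pH 8.0 (Hepes, MnCl2, DTT). The 2 μM biotin-peptide substrate is phosphorylated by PLK3 (h) (30 μg/ml) using 0.1 μM ATP traced with 33P, for 20 min at room temperature. EDTA stop; phosphopeptide captured on streptavidin beads and imaged.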

CDK4/CyclinD1 (h) = CDK4/CyclinD1 (h) (Homo sapiens, UniProt P11802); test: CDK4/CyclinD1 human kinase inhibition, SPA with GST-pRb substrate; assay type: biochemical; conditions: read-out: CDK4 pIC50 (converted)
Sequence of CDK4/CyclinD1 (h) (P11802 whole entry): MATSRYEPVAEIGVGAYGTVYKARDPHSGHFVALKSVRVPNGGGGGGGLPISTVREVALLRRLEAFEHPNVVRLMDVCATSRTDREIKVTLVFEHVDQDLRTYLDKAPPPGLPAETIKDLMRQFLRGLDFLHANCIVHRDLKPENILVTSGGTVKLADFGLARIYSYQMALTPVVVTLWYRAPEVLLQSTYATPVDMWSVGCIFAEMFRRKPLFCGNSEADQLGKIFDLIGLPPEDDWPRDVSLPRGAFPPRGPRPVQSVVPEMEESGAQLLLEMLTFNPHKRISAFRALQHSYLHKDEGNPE
Sequence of CDK4/CyclinD1 (h) (P24385 whole entry partner): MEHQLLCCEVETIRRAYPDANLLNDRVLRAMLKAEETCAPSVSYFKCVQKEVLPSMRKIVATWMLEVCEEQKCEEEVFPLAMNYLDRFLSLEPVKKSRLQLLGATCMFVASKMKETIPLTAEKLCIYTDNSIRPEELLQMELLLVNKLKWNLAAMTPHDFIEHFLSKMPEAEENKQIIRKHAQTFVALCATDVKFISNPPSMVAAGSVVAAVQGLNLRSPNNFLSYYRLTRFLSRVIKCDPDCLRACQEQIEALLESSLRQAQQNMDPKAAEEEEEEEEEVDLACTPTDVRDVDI
Procedure, shortened: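 Scintillation proximity format: after EDTA/Triton stop containing glutathione SPA beads, 33P incorporation was counted. The reaction ran 60 min at room temperature in Hepes pH 7.5 with NaF, MgCl2, DTT, using 2.5 μg/ml human CDK4/CyclinD1, 40 μg/ml GST-pRb substrate and 2 nM [γ-33P]ATP.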

PLK2 (h) = PLK2 (h) (Homo sapiens, UniProt Q9NYY3); test: PLK2 human kinase inhibition, SPA; assay type: biochemical; conditions: read-out: PLK2 pIC50 (converted)
Sequence of PLK2 (h) (Q9NYY3 whole entry): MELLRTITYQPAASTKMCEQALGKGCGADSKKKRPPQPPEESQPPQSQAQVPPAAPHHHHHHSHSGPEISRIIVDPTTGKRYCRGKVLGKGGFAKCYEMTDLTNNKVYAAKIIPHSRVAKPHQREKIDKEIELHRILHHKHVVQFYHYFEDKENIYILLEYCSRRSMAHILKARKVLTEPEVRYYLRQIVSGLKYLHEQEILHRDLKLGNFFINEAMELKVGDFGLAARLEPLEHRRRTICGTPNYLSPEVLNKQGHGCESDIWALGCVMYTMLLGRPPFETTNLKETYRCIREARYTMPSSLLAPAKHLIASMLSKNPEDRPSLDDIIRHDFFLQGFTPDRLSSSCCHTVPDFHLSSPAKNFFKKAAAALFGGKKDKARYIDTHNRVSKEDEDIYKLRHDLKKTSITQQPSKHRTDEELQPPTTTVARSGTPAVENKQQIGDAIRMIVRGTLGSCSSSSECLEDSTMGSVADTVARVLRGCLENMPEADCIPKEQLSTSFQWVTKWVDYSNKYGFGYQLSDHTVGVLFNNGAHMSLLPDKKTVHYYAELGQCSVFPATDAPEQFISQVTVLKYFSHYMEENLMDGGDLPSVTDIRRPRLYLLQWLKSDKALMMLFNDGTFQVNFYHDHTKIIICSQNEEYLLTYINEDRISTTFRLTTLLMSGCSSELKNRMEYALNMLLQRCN
Procedure, shortened: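 33P incorporation into a biotinylated peptide (2 μM) was captured on streptavidin PVT beads and imaged on Leadseeker. Enzyme at 30 μg/ml, ATP 0.1 μM with 2 nM [γ-33P]ATP, Hepes pH 8.0 with MnCl2 and DTT. Incubation was 20 min at room temperature.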

Row | SMILES | IC50 (HCT-116) [µM] | IC50 (U87-MG) [µM] | IC50 (H1299) [µM] | IC50 (CDK1/CyclinB (h)) [µM] | IC50 (A2780) [µM] | IC50 (AuroraB (h)) [µM] | IC50 (PLK3 (h)) [µM] | IC50 (CDK4/CyclinD1 (h)) [µM] | IC50 (PLK2 (h)) [µM]
1 | O=C1CN2CCN(CC2)Cc2cc(ccc2N2CCOCC2)Nc2nccc(n2)-c2cccc(c2)OCCCN1 [Compound 103] | > 10 | > 10 | > 10 | > 10 | > 10 | > 10 | > 10 | > 10 | > 10
2 | CN1CCCNC(=O)[C@H](CO)NCc2cccc(c2)Nc2nccc(n2)-c2ccc(cc2)C1 [Compound 113] | > 10 | > 10 | > 10 | > 10 | > 10 | > 10 | > 10 | > 10 | > 10
3 | O=C1NCCNCc2ccc(cc2)-c2ccnc(n2)Nc2ccc(N3CCOCC3)c(c2)CN[C@H]1CO [Compound 115] | > 10 | > 10 | > 10 | > 10 | > 10 | > 10 | > 10 | > 10 | > 10
4 | COc1ccc2cc1CNCCNC(=O)CN1CCN(CC1)Cc1cc(ccc1N1CCOCC1)Nc1nccc-2n1 [Compound 126] | 8.71 | > 10 | > 10 | > 10 | 5.37 | 8.71 | > 10 | > 10 | > 10
5 | COc1ccc2cc1CN(C)CCCNC(=O)CN1CCN(CC1)Cc1cc(cc(NC(C)C)c1)Nc1nccc-2n1 [Compound 130] | > 10 | > 10 | > 10 | 7.76 | > 10 | 6.31 | > 10 | > 10 | > 10
6 | CN1CCNC(=O)CN2CCN(CC2)Cc2cc(cc(N3CCOCC3)c2)Nc2nccc(n2)-c2ccc(cc2)C1 [Compound 135] | > 10 | 9.77 | > 10 | > 10 | > 10 | > 10 | > 10 | > 10 | > 10
7 | COc1ccc2cc1CN(C)CCCNC(=O)CN1CCN(CC1)Cc1cc(cc(N3CCOCC3)c1)Nc1nccc-2n1 [Compound 141] | 2.29 | 5.89 | > 10 | > 10 | 8.91 | > 10 | > 10 | > 10 | > 10
8 | COc1ccc2cc1CN(C)CCNC(=O)CN1CCN(CC1)Cc1cc(cc(NC(C)C)c1)Nc1nccc-2n1 [Compound 142] | > 10 | 5.62 | > 10 | 8.51 | > 10 | > 10 | > 10 | > 10 | > 10
9 | COc1ccc2cc1CN(C)CCCNC(=O)CN1CCN(CC1)Cc1cc(Br)cc(c1)Nc1nccc-2n1 [Compound 144] | > 10 | 9.33 | > 10 | > 10 | > 10 | 7.94 | > 10 | > 10 | > 10
10 | COc1ccc2cc1CN(C)CCNC(=O)CN1CCN(CC1)Cc1cc(cc(N3CCOCC3)c1)Nc1nccc-2n1 [Compound 145] | > 10 | > 10 | > 10 | > 10 | > 10 | > 10 | > 10 | > 10 | > 10
11 | COc1ccc2cc1CN(C)CCCNC(=O)CN1CCN(CC1)Cc1cccc(c1)Nc1nccc-2n1 [Compound 146] | > 10 | > 10 | > 10 | > 10 | > 10 | > 10 | > 10 | > 10 | > 10
12 | COc1ccc2cc1CN(C)CCNC(=O)CN1CCN(CC1)Cc1cccc(c1)Nc1nccc-2n1 [Compound 147] | > 10 | > 10 | > 10 | > 10 | > 10 | > 10 | > 10 | > 10 | > 10
13 | CC(C)Nc1cc2cc(c1)Nc1nccc(n1)-c1ccc(cc1)CN(C)CCNC(=O)[C@@H]1CCCN1C2 [Compound 153] | 5.5 | 5.75 | > 10 | 2.82 | > 10 | > 10 | > 10 | > 10 | > 10
14 | CN1CCNC(=O)[C@@H]2CCCN2Cc2cc(Br)cc(c2)Nc2nccc(n2)-c2ccc(cc2)C1 [Compound 155] | > 10 | > 10 | > 10 | > 10 | > 10 | > 10 | > 10 | > 10 | > 10
15 | O=C1NCCNc2cc(ccn2)-c2ccnc(n2)Nc2ccc(N3CCOCC3)c(c2)CN2CCCC12 (stereo not drawn) [Compound 161] | 4.68 | > 10 | 10 | 5.13 | 9.77 | 6.17 | > 10 | > 10 | > 10
16 | COc1ccc2cc1CN(C)CCCNC(=O)[C@@H]1CCCN1Cc1cc(cc(NC(C)C)c1)Nc1nccc-2n1 [Compound 164] | > 10 | 2.09 | > 10 | > 10 | > 10 | > 10 | > 10 | > 10 | > 10
17 | O=C1NCCCNCc2ccc(cc2)-c2ccnc(n2)Nc2ccc(N3CCOCC3)c(c2)CN2C[C@H](O)C[C@@H]12 [Compound 169] | > 10 | > 10 | > 10 | > 10 | > 10 | > 10 | > 10 | > 10 | > 10
18 | CN1CCCNC(=O)[C@@H]2CCCN2Cc2cccc(c2)Nc2nccc(n2)-c2ccc(cc2)C1 [Compound 173] | > 10 | > 10 | > 10 | > 10 | > 10 | > 10 | > 10 | > 10 | > 10
19 | COc1ccc2cc1CN(C)CCNC(=O)[C@@H]1CCCN1Cc1cccc(c1)Nc1nccc-2n1 [Compound 175] | > 10 | > 10 | > 10 | > 10 | > 10 | > 10 | > 10 | > 10 | > 10
20 | COc1ccc2cc1CNCCNC(=O)[C@@H]1C[C@@H](O)CN1Cc1cc(ccc1N1CCOCC1)Nc1nccc-2n1 [Compound 177] | > 10 | > 10 | > 10 | > 10 | > 10 | > 10 | > 10 | > 10 | > 10
21 | COc1ccc2cc1CNCCNC(=O)[C@@H]1CCCN1Cc1cc(ccc1N1CCOCC1)Nc1nccc-2n1 [Compound 178] | > 10 | 8.91 | > 10 | > 10 | > 10 | > 10 | > 10 | > 10 | > 10
22 | COc1ccc2cc1CN(C)CCCNC(=O)[C@@H]1CCCN1Cc1cc(cc(N3CCOCC3)c1)Nc1nccc-2n1 [Compound 179] | > 10 | > 10 | > 10 | > 10 | > 10 | > 10 | > 10 | > 10 | > 10
